Laboratory results from ChEMBL document CHEMBL4699423, “Photocontrolled activation of small molecule cancer therapeutics” (RSC Med Chem, 2020).

Columns and labels:
MDA-MB-231 [1] = experiment: Cytotoxicity against human MDA-MB-231 cells in dark; format: functional, cell-based
MDA-MB-231 [2] = experiment: Cytotoxicity against human MDA-MB-231 cells; format: functional, cell-based
[3] = Cytotoxicity against human MCF-10A cells; format: cell-based; conditions: read-out: LD50 (the source's name)
HCT-116 = experiment: Cytotoxicity against human HCT-116 cells; format: functional; conditions: read-out: LD50 (the source's name)
MDA-MB-468 = experiment: Cytotoxicity against human MDA-MB-468 cells; format: functional; conditions: read-out: LD50 (the source's name)

SMILES: COc1ccc(/N=N/c2cc(OC)c(OC)c(OC)c2)cc1O
- EC50 (MDA-MB-231 [1]): 38000 nM

SMILES: COc1ccc(/N=N\c2cc(OC)c(OC)c(OC)c2)cc1O
- EC50 (MDA-MB-231 [2]): 500 nM

SMILES: CC(C)C[C@H](NC(=O)[C@@H](NC(=O)c1ccc(/N=N\c2ccc(-c3ccccc3)cc2)cc1)[C@@H](C)O)B1OC2C[C@@H]3C[C@H](C2O1)C3(C)C (stereo partly drawn)
- CC50 [3]: 144 nM
- CC50 (HCT-116): 212 nM
- CC50 (MDA-MB-468): 1030 nM

SMILES: CC(C)C[C@H](NC(=O)[C@@H](NC(=O)c1ccc(/N=N/c2ccc(-c3ccccc3)cc2)cc1)[C@@H](C)O)B1OC2C[C@@H]3C[C@H](C2O1)C3(C)C (stereo partly drawn)
- CC50 [3]: > 5000 nM
- CC50 (HCT-116): 246 nM
- CC50 (MDA-MB-468): 683 nM
